The source of these data is US6605115B1, “Method and composition for inhibiting cardiovascular cell proliferation” (Board of Trustees of the Leland Stanford Junior University, priority 1999, dated 2003).

The test system of series [1] is vein graft segments. Nature of the series: Ex vivo NOx production from vein graft harvested 3 days after surgery. Format: in vivo, New Zealand white rabbits. The conditions noted are these: A23187, 10.0 μM. The protocol: Vein grafts were harvested 3 days after surgery, as described in Example 7. Vein graft segments were incubated in 1 me of Hanks' buffered saline solution (HBSS, Irvine Scientific) containing Ca^2+ (1.0 mM) and L-arginine (100 μM, Sigma) at 37° C. for 2 hours. NOx (nitrate and nitrite) production was measured either in the absence (basal) or presence (stimulated) of calcium ionophore (A23187, 10.0 μM, Sigma). Samples of the medium (80 μL) were collected, and NOx measurement was performed using the Griess reaction facilitated by a commercial calorimetric assay (Cayman Chemical).

The test system of series [2] is cytokine-stimulated VSMC. Nature of the series: Effect of arginine oligomers on NO production in cytokine-stimulated VSMC (NO2, Griess). The format is cell-based, rat. As to the method: Rat VSMCs were prepared from the media layer of thoracic aorta of Sprague-Dawley rats by the explant method. The cells were cultured in Dulbecco's modified Eagle's medium (DMEM, Gibco BRL, Gaithersburg, Md.) containing 10% fetal calf serum, 100 U/ml penicillin and 100 μg/ml streptomycin at 37° C. under a humidified atmosphere containing 5% CO2. After subconfluent growth, cells were cultured with MEM Select Amine Kit (Gibco BRL, Gaithersburg, Md.) to be treated by specific concentrations of extracellular free L-arginine. Experiments were performed using cultured cells at passage levels of 5-10.
Extracellular NO production was measured as its stable oxidative metabolite, nitrite (NO2). At the end of each incubation, samples of the medium (80 μl) were collected, and NO2 measurement was performed using the Griess reaction facilitated by a commercial calorimetric assay (Cayman Chemical, Ann Arbor, Mich.). Values of NO2 production were corrected with relative cell count assessed by a cell proliferation kit II (XTT) (Boeheringer Mannheim, Germany).
Subconfluent cells were pre-incubated with medium containing 100 μM arginine for 24 hours. The cells were then transiently pretreated with each arginine polymer for 30 minutes. After translocation, the cells were incubated with a mixture of IFN-γ (100 U/ml) and LPS (100 μg/ml) in medium containing 100 μM L-arginine for another 24 hours. In some experiments, L-NMMA (1 mM), a nitric oxide synthase inhibitor, was added to the medium.
(Griess reagent forms a coloured azo dye with nitrite.)

Series [3] relates to rabbit carotid artery segment. As to the kind of experiment: Ex vivo translocation study, carotid artery segments. Details: species or system New Zealand white rabbits. As to the method: After incubation with biotin labeled oligomer, vascular segments were washed, then frozen in OCT compound (Miles Scientific). Frozen sections, 5 μm thick, were fixed with acetone for 10 minutes. Internalized biotin was detected using the staining procedure described in Example 2. Methyl green was used for nuclear counter staining.
To quantify the efficiency of nuclear translocation, the numbers of both DAB positive nuclei and total nuclei were counted in the intima and media separately at ×400 magnification with a video image analysis system (Automatrix). The frequency of nuclear translocation was expressed as the percent staining of nuclei, defined as the ratio of the number of DAB positive nuclei to that of all nuclei, in the intima and media. Each protocol was repeated 4 times.
Both carotid artery and jugular vein segments of male New Zealand white rabbits were used. To test the dose dependence of R7 translocation, vascular segments were incubated for 30 minutes with either bL-R7 or bD-R7 solution (0.1, 1.0, and 10.0 μM) in serum-free Dulbecco's minimal essential medium (DMEM) (Gibco BRL). To test the incubation time dependence, vascular segments were incubated with 10.0 μM of biotin labeled R7 solution for 10 seconds, 60 seconds, 5 minutes, 10 minutes, and 30 minutes. Furthermore, to determine the ability of R7 to penetrate through the vessel wall, vascular segments were ligated one end, R7 containing medium was instilled, and the other end ligated so as to expose only the luminal surface to R7. The luminal surface of the vascular segment was exposed to bL-R7 or bD-R7 (10.0 μM) for 30 minutes. To test the temperature dependence of translocation, vascular segments were incubated with 10.0 μM of biotin labeled R7 solutions at 37° C. or 4° C. To determine the disappearance time course of translocated R7, vascular segments were incubated with biotin labeled R7 solutions (10.0 μM) at 37° C. for 30 minutes, and then reincubated in DMEM with 10% FBS up to 5 days. Vascular segments were harvested at 1, 2 and 5 days after initial incubation.

In series [4] the test system is rat vascular smooth muscle cells (VSMC). As to the kind of experiment: Translocation of biotin-labeled peptides into cultured VSMC (HRP-streptavidin/DAB staining). The format is cell-based. The settings on record: for internalized biotin signal (staining): 30 minutes. The protocol:
In the studies described below, transmembrane transport and cellular uptake of oligomers was assessed by incubating cells or tissue with biotin-oligomer conjugates, followed by treatment with horseradish peroxidase (HRP)-conjugated streptavidin and subsequent incubation with DAB (3,3′-diaminobenzidine), a substrate of the enzyme which produces a highly colored product.
Cultured VSMC (vascular smooth muscle cells) were treated, as described in Example 2, with biotinylated oligomers of arginine or lysine. After incubation, the cells were treated with HRP-streptavidin conjugate, then with DAB. Staining by the oxidation product was observed using light microscopy.
Rat VSMCs were grown on glass microscope slide chambers (Nunc Inc., Naperville, Ill.). Subconfluent cells were washed and placed in serum-free medium. After 2 hours, cells were treated with bR7, or bK7 (0.1 μM, 1.0 μM, 10 μM), at 37° C. for 30 minutes. To assess the role of endocytosis in cellular uptake of the peptides, experiments were performed at 4° C., and also in the presence of sodium azide (1.0%) for 30 minutes prior to exposure to the peptides. To assess the involvement of the basic amino acid transport system y+ in the translocation of peptides into the cell, experiments were performed in the presence of excess extracellular L-arginine (10 mM).
After 30 minutes of incubation with the peptides, cells were washed 3 times with phosphate-buffered saline (PBS), fixed for 5 minutes at −20° C. in ethanol/acetone, washed 3 times in PBS, incubated for 30 minutes with a peroxidase suppressor (ImmunoPure, Pierce, Rockford, Ill.) to block endogenous peroxidase activity and nonspecific binding, washed, and then incubated with 5 μg/ml of horseradish peroxidase (HRP) conjugated strepavidin (Pierce, Rockford, Ill.) for 30 minutes. Cells were washed 3 times with PBS, and a substrate of HRP, DAB (Sigma, St. Louis, […].), was added to the cells. The reaction was terminated by washing in distilled water after a 60-second incubation with DAB. Cell preparations were observed by conventional light microscopy (see FIG. 1). This experimental protocol was repeated 3 times.

Series [5] has as its system human umbilical vein endothelial cells (ECV304). Nature of the series: In vitro translocation of biotin-labeled peptides into endothelial cells. The format is cell-based. The settings on record: endothelial cells. The protocol:
Spontaneously transformed human umbilical vein endothelial cells (ECV304, ATCC) were cultured in medium M199 (Irvine Scientific) containing 10% fetal bovine serum (FBS), 100 IU/ml penicillin and 100 μg/ml of streptomycin (Gibco BRL). Confluent cells were washed and placed in serum-free medium. After 2 hours, the cells were incubated in presence of biotin labeled peptides, as bL-R7, or bD-R7, or bL-K7 (0.1, 1.0, and 10.0 μM). After 30 minutes of incubation, cells were washed 3 times with phosphate-buffered saline (PBS), fixed in ethanol/acetone; washed in PBS; incubated for 30 minutes with peroxidase suppressor (ImmunoPure, Pierce) to block endogenous peroxidase activity; and then incubated with 5 μg/ml of horse-radish peroxidase (HRP) conjugated strepavidin (Pierce) for 30 minutes. Substrate of HRP, diaminobenzidine (DAB, Sigma), was added to the cells. The reaction was terminated by washing in distilled water after a 60-second incubation. This experiment was repeated 3 times.

For series [6], the system named is coronary vessels of transplanted PVG rat donor hearts. Nature of the series: Heart transplant study (graft coronary artery disease, GCAD). Format: in vivo. The settings on record: for % affected vessels / % luminal narrowing / I/M ratio: intracoronary 50 uM, 30 minutes. As to the method:
In this study, PVG rat donor hearts (n=48) were transplanted heterotopically into the abdomen of ACI recipients. Donor hearts received either intracoronary PBS or intracoronary 50 uM (L)-arginine polymer (L-R5 or L-R9) for 30 minutes. (D-arginine polymers were not included in this study.) Each of these groups was further divided into 60 and 90 day study animals (n=6 each). Percent luminal narrowing, intima to media ratio (I/M), and percent affected vessels were determined as described in Example 11, below. Transfection efficiency was determined by infusing biotinylated R5 and R9, as in the preceding studies, and calculating the percentage of biotin positive nuclei divided by total number of nuclei.
PVG rat donor hearts (n=48) were transplanted heterotopically into the abdomen of ACI recipients. Donor hearts received either intracoronary PBS or intracoronary 50 uM (L)-arginine polymer (L-R5 or L-R9) for 30 minutes. Each group was further divided into 60 and 90 day study animals (n=6 each). Tissue cross sections (5μ) were stained with EVG (Elastica-van Gieson) preparation, and vessels were scored using computerized morphometry for analysis of % luminal narrowing, intima to media ratio (I/M), and % affected vessels. Transfection efficiency was determined by infusing biotinylated R5 and R9, as in preceding examples, and calculating the percentage of biotin positive nuclei divided by total number of nuclei. Results are described in Section IV C, above.

As for `CNc1ccc2oc(C[C@H]3O[C@@]4(CC[C@H]3C)O[C@H]([C@H](C)C(=O)c3ccc[nH]3)[C@H](C)C[C@H]4C)nc2c1C(=O)O` [Calcium ionophore, reference compound], the “NOx production by the vein grafts on calcium ionophore stimulation” value in series [1] is recorded as “did not significantly affect the NOx production”.

Turning to `CNC(=N)NCCC[C@H](N)C(=O)O` [L-NMMA, N^G-monomethyl L-arginine, reference compound], the “enhancement of NO production in R7 treated cells after NO synthase inhibitor” value in series [2] (L-NMMA (1 mM) added to R7 treated cells) was “abolished”.

For the compound biotin-labeled heptaarginine [bR7], in series [3] (10.0 μM, 4° C.), the “speed or efficacy of translocation into vascular tissue at 4° C.” value is given as “no apparent reduction in the speed or efficacy”. Also, the “biotin signals after intraluminal instillation” value in series [3] (10.0 μM, 30 minutes of intraluminal exposure) was “biotin signals were detected throughout the vessel, including the adventitial cells”. For the same compound, the “biotin signal in vascular cells” value in series [3] (carotid artery, 10.0 μM, 30 minutes) is “a distinct biotin signal was observed in virtually all intimal cells, medial cells, and adventitial cells”. Moreover, the “biotin staining by day 5” value in series [3] (day 5 after exposure (10.0 μM), serum containing medium) is given as “No significant positive staining”. Further, the “internalized biotin signal (staining)” value in series [4] (0.1 μM) is reported as “internalized biotin was observed in all VSMCs”; in series [4] (10 μM, 37° C.), “very intense staining, not only in the cytoplasm, but also in the nucleus of all VSMC”. In series [4] (4° C.), the “efficacy of translocation at 4° C.” value was “no apparent reduction was observed in the efficacy of bR7 translocation”. In addition, the “cytoplasmic and nuclear staining after sodium azide” value in series [4] (cells exposed to 1% sodium azide for 30 minutes prior to incubation) is “neither cytoplasmic nor nuclear staining was observed”. In addition, the “translocation in presence of free L-arginine” value in series [4] (free L-arginine up to 10 mM added) is given as “Nor was translocation of bR7 inhibited”. Besides, the internalized biotin result is listed as “internalized biotin was observed in the cytoplasm of all EC” in series [5] (0.1 μM) and “internalized biotin was detected not only in the cytoplasm but also in the nucleus of virtually all exposed endothelial cells” in series [5] (10.0 μM for 30 minutes).

Take hepta-L-lysine [K7, reference compound]: the NO production entry in series [2] (100 μM, 30 minutes) is given as “did not increase the NO production”.

For nona-L-arginine [R9], the “GCAD compared to PBS controls” value in series [6] (60 and 90 days) is “significant reduction in GCAD”. For the same compound, in series [6] (60 days), the “% affected vessels” value is 6.5 ± 6.9%, the “% luminal narrowing” value is 3.2 ± 3.8% and the I/M ratio entry was “.03 ± .04”. Moreover, in series [6] (90 days), the “% affected vessels” value came out at 4.9 ± 7.1%, the “% luminal narrowing” value came to 1.6 ± 3.3% and the I/M ratio result is given as “.01 ± .02”. The “transfection of coronary vessels” value in series [6] (biotinylated oligomer infused) is “marked transfection of the intima and media of coronary vessels”. Moreover, the NO production result in series [2] (pretreatment 30 minutes, then IFN-γ and LPS, 100 μM extracellular L-arginine) is on record as “dose-dependent increases in NO production at doses as low as 10 μM”. In series [2] (pretreatment 30 minutes, vs. vehicle treated cytokine-stimulated cells), the “degree of enhancement of NO production” value is listed as 44±5.2%.
